Measurements from PMC6770214, “An Aromatic Aldehyde Synthase Controls the Synthesis of Hydroxytyrosol Derivatives Present in Virgin Olive Oil” (Antioxidants, 2019).

B1: OeAAS (Olea europaea subsp. europaea) (protein)
chain: MEGSLKPMDAEQLRECAHKMVDFVADYYKNIENFPVLSQVQPGYLRELLPDSAPTHPESLQDVLNDVQAKILPGVTHWQSPDYFAYFPSNSSIAGFLGEMLSAGINMVGFSWITSPAATELEMIVLDWLAKALKLPDEFLSTGKGGGVIQGTACEAVLVVLLAARDRVLRKVGKDAVGKLVVYSSDQTHSALQKACQIGGIHPENCQVLETDPSTDHALAPESLSQAISQDIASGLIPFFLCATVGTTSSTAVDPLLALGNITKTNGMWFHVDAAYAGSACICPEFRHYIDGVEEADSFNMNAHKWFLTNFDCSALWIKDRSALIQSLSTNPEFLKNKASEGNTVVDYKDWQIPLGRRFRSLKLWMVLRLYGLENLQAYIRNHIELAKTFEELVKQDPRFEVAAPRKFSLVCFRLLPPQNKEDRANKLNHDLLDSVNSTGKIFISHTVLSGKYVLRFAVGAPLTEKRHIVAAWKVLQEKASALLRIL
notes: codon-optimised synthetic gene in pET-28a(+)-TEV (NdeI-XhoI), His-tagged, E. coli BL21(DE3), Ni-NTA

Assays:
OeAAS = target: T1, OeAAS (Olea europaea, UniProt A0A8S0T2W9); assay: loss and restoration of enzyme activity without / with PLP; format: biochemical; conditions: PLP omitted during purification or in reaction medium
T1 construct: gene OLEA9_A000744; codon-optimised synthetic gene in pET-28a(+)-TEV (NdeI-XhoI), His-tagged, E. coli BL21(DE3), Ni-NTA
T1 sequence (A0A8S0T2W9 1-487): B1 chain

[1] = substrate: N[C@@H](Cc1ccc(O)c(O)c1)C(=O)O; assay: HPLC-DAD quantification of aldehyde product; format: biochemical, Olea europaea; conditions: 50 mM sodium phosphate pH 6.8, 200 uM PLP, 30 °C, 20 min, L-DOPA 0.05-5 mM

Molecule | loss and restoration of enzyme activity without / with PLP (OeAAS) | Km [1] [µM]
Cc1ncc(COP(=O)(O)O)c(C=O)c1O [PLP] | absence of PLP during purification or in the reaction medium resulted in a total loss | 
B1 |  | 150
